Test systems include UACC-257; NCI-H226; 786-0; U-251; NCI-H522; SF-268; HOP-92; SNB-75; OVCAR-8; RXF 393; NCI-H460; A498; IGROV-1; NCI-H23; SW-620; MDA-MB-231; OVCAR-5; ACHN; LOX IMVI; M14.
What all share (assay): NCI anticancer screen, dose series, 48 h

Molecules are shown by their SMILES. Where “and” joins values, the source holds several entries; their conditions need not be identical. Equal entries are not always repeated.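 All cell lines were grown in 96-well plates and treated with compound for 48 hours. GI50 is the concentration that inhibits growth by half.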 Calls of active or inactive are those of the source. Cut-off read from the data, not from the text of the source: active = GI50 up to about 1.1 µM and inactive = higher.

As for `COc1ccc2c(c1)CC1Cc3cc(OC)c(OC)cc3CN1CC2` (configuration not stated), the GI50 was 33.8 µM (inactive) in the assay with UACC-257; 21.7 µM (inactive) in the assay on NCI-H226; 27.2 µM (inactive) in the assay on 786-0; 49.5 µM (inactive) in the assay on U-251; 34.6 µM (inactive) in the assay on NCI-H522; 82.2 µM (inactive) in the assay on SF-268. For the same compound, the GI50 with HOP-92 is 11.6 µM (inactive); with SNB-75, 29.7 µM (inactive); in the assay with OVCAR-8, 33.8 µM (inactive); in the assay on RXF 393, 21 µM (inactive); in the assay with NCI-H460, 23 µM (inactive); in the assay with A498 it was 28.6 µM (inactive). The GI50 with IGROV-1 is 17.3 µM (inactive); with NCI-H23, 46.5 µM (inactive); with SW-620, 47.1 µM (inactive); with MDA-MB-231, 42.6 µM (inactive); in the assay with OVCAR-5, 56 µM (inactive); in the assay with ACHN it was 21.5 µM (inactive). Also, the GI50 with LOX IMVI was 23.5 µM (inactive); in the assay with M14 it was 48.2 µM (inactive).
Turning to `Clc1ccc(C2=C(c3ccccc3)C(c3ccc(Cl)cc3)N3C(=N[C@H]4CCCC[C@@H]43)N2)cc1` (some centres not stated), the GI50 with UACC-257 was 14.9 µM (inactive); in the assay with NCI-H226, 21 µM (inactive); in the assay on 786-0, 14.7 µM (inactive); in the assay on U-251 it was 11.3 µM (inactive); in the assay with SF-268, 19.9 µM (inactive); with HOP-92 it was 9.59 µM (inactive). For the same compound, the GI50 in the assay on SNB-75 was 15.2 µM (inactive); in the assay with OVCAR-8, 13.7 µM (inactive); with RXF 393 it was 13.9 µM (inactive); in the assay on NCI-H460, 2.99 µM (inactive); in the assay on A498 it was 17.3 µM (inactive); in the assay with IGROV-1 it was 12.9 µM (inactive). Further, the GI50 in the assay with NCI-H23 was 14.2 µM (inactive); in the assay with SW-620, 8.05 µM (inactive); with MDA-MB-231, 14.9 µM (inactive); in the assay with OVCAR-5 it was 16.3 µM (inactive); in the assay on ACHN, 11.2 µM (inactive); in the assay with LOX IMVI, 11.8 µM (inactive). Besides, the GI50 in the assay on M14 is 12.4 µM (inactive).
In the case of `COc1ccc2nc(-c3ccc(O)cc3)cn2c1`, the GI50 is > 100 µM (inactive) with NCI-H226; 58.7 µM (inactive) with 786-0; 44.7 µM (inactive) in the assay on U-251; 32 µM (inactive) in the assay with NCI-H522; 56.8 µM (inactive) in the assay with SF-268; 95.7 µM (inactive) in the assay with HOP-92. In addition, the GI50 with SNB-75 is 95.5 µM (inactive); in the assay on OVCAR-8, 51.3 µM (inactive); in the assay with RXF 393 it was > 100 µM (inactive); in the assay with NCI-H460 it was 27.4 µM (inactive); with A498, 71.4 µM (inactive); in the assay with IGROV-1, 42.4 µM (inactive). The GI50 with NCI-H23 is 71.9 µM (inactive); in the assay with SW-620, 11.7 µM (inactive); in the assay with MDA-MB-231 it was > 100 µM (inactive); in the assay on OVCAR-5 it was > 100 µM (inactive); in the assay with ACHN, 23.3 µM (inactive); in the assay on LOX IMVI it was 59 µM (inactive). Further, in the assay with M14, the GI50 is 47.4 µM (inactive).
With `N#Cc1c(N)nc2c(C#N)c(N)cc3c2c1Oc1ccccc1-3`, the GI50 in the assay with UACC-257, in the assay on NCI-H226, in the assay with 786-0, with U-251, in the assay on SF-268 and in the assay on HOP-92 was > 100 µM (inactive) in each case. Besides, the GI50 in the assay on SNB-75, in the assay with OVCAR-8, with RXF 393, in the assay with NCI-H460, in the assay on A498 and with IGROV-1 was > 100 µM (inactive) in each case. Also, the GI50 with NCI-H23, in the assay with SW-620, in the assay with MDA-MB-231, with OVCAR-5, with ACHN and in the assay with LOX IMVI was > 100 µM (inactive) in each case. Besides, the GI50 in the assay on M14 was > 100 µM (inactive).
As to `Cc1ccc(C(=O)Cn2c(C(=O)/C=C/c3cccs3)nc3ccccc32)cc1`, the GI50 is 24.4 µM (inactive) with UACC-257; > 100 µM (inactive) in the assay on NCI-H226; 45.5 µM (inactive) in the assay with 786-0; 39.1 µM (inactive) with U-251; 32.9 µM (inactive) in the assay on SF-268; 93.5 µM (inactive) in the assay with HOP-92. Moreover, the GI50 was > 100 µM (inactive) in the assay with SNB-75; 94.6 µM (inactive) in the assay with RXF 393; 22.4 µM (inactive) with NCI-H460; 32.1 µM (inactive) in the assay with A498; 25 µM (inactive) with IGROV-1; 29.9 µM (inactive) with NCI-H23. For the same compound, the GI50 in the assay on SW-620 is 34.2 µM (inactive); with MDA-MB-231 it was 71.3 µM (inactive); in the assay on OVCAR-5, > 100 µM (inactive); in the assay on ACHN it was 61.4 µM (inactive); with LOX IMVI, 26.2 µM (inactive); with M14 it was 49.9 µM (inactive).
Consider `COc1c2nc(CCl)n(C)c(=O)c2c(OC)c2c(=O)n(C)c(CCl)nc12`, for which the GI50 in the assay with UACC-257 is 1.81 µM (inactive); in the assay on NCI-H226 it was 3.06 µM (inactive); with 786-0, 0.904 µM (active); in the assay on U-251, 1.64 µM (inactive); with NCI-H522, 1.34 µM (inactive); in the assay with SF-268, 1.48 µM (inactive). Moreover, the GI50 in the assay on HOP-92 is > 100 µM (inactive); in the assay on SNB-75, 0.719 µM (active); in the assay with OVCAR-8, 2.67 µM (inactive); in the assay with RXF 393, 2.07 µM (inactive); in the assay with NCI-H460, 1.97 µM (inactive); with A498, 2.33 µM (inactive). Further, the GI50 with IGROV-1 was 1.94 µM (inactive); with NCI-H23, 1.62 µM (inactive); in the assay on SW-620, 1.1 µM (active); in the assay with MDA-MB-231 it was 1.55 µM (inactive); in the assay with OVCAR-5 it was 2.3 µM (inactive); in the assay with ACHN it was 1.19 µM (inactive). Moreover, the GI50 with LOX IMVI was 0.446 µM (active).
As for `C=C1C(=O)OC2CC1C(OC(C)=O)C/C(C)=C/CC/C(C)=C\CCC2(C)O` (configuration not stated), the GI50 with UACC-257 was 3.03 µM (inactive) and 5.11 µM (inactive); in the assay with 786-0 it was 3.24 µM (inactive) and 2.6 µM (inactive); in the assay with U-251, 10.7 µM (inactive) and 10.3 µM (inactive); with NCI-H522, 1.44 µM (inactive) and 1.36 µM (inactive); in the assay with SF-268, 5.24 µM (inactive) and 5.45 µM (inactive); in the assay with HOP-92 it was 3.65 µM (inactive) and 2.89 µM (inactive). The GI50 in the assay on SNB-75 was 11.2 µM (inactive) and 10.8 µM (inactive); in the assay with OVCAR-8, 3.36 µM (inactive) and 3.17 µM (inactive); with RXF 393, 3.67 µM (inactive); in the assay on NCI-H460, 2.11 µM (inactive) and 3.41 µM (inactive); in the assay on A498, 5.22 µM (inactive) and 5.52 µM (inactive); in the assay on SW-620, 2.64 µM (inactive) and 3.4 µM (inactive). Moreover, the GI50 in the assay with MDA-MB-231 is 7.13 µM (inactive) and 8.95 µM (inactive); in the assay on OVCAR-5, 10.9 µM (inactive) and 16.5 µM (inactive); in the assay on ACHN, 4.23 µM (inactive) and 2.37 µM (inactive); in the assay with LOX IMVI it was 2.46 µM (inactive) and 2.14 µM (inactive); in the assay with M14 it was 5.83 µM (inactive) and 6.1 µM (inactive).
Turning to `Cc1ccc(-n2cnc3c(N)nc(N)nc32)cc1`, the GI50 with UACC-257, with NCI-H226, in the assay on 786-0, in the assay on U-251, in the assay on NCI-H522 and in the assay on SF-268 was > 100 µM (inactive) throughout. The GI50 in the assay with HOP-92 was > 100 µM (inactive); in the assay on SNB-75, 1.53 µM (inactive); in the assay with OVCAR-8, > 100 µM (inactive); in the assay on RXF 393 it was 43.6 µM (inactive); in the assay on A498, > 100 µM (inactive); in the assay with IGROV-1, > 100 µM (inactive). The GI50 in the assay on NCI-H23, in the assay with SW-620, with MDA-MB-231, in the assay on OVCAR-5, in the assay on ACHN and in the assay with LOX IMVI was > 100 µM (inactive) throughout. Moreover, the GI50 with M14 was > 100 µM (inactive).
Turning to `CCc1nc(N)nc(N)c1-c1ccc(Cl)c(Cl)c1` [ETOPRINE], the GI50 in the assay with UACC-257 was 8.38 µM (inactive); in the assay on 786-0, 0.653 µM (active); in the assay with U-251, 2.79 µM (inactive); in the assay on NCI-H522, 5.81 µM (inactive); in the assay with SF-268 it was 6.62 µM (inactive); in the assay with HOP-92, 13.3 µM (inactive). The GI50 is 35.1 µM (inactive) with SNB-75; 59.3 µM (inactive) in the assay with RXF 393; 0.506 µM (active) in the assay with NCI-H460; > 100 µM (inactive) with A498; 2.96 µM (inactive) with IGROV-1; 2.74 µM (inactive) in the assay with NCI-H23. The GI50 in the assay with SW-620 was 5.32 µM (inactive); with MDA-MB-231, > 100 µM (inactive); in the assay with OVCAR-5 it was 7.06 µM (inactive); with ACHN it was 2.86 µM (inactive); with LOX IMVI it was 3.51 µM (inactive); in the assay on M14, 0.675 µM (active).
With `CC(C)(Br)C(Br)CCC1(C2CO2)CO1` (configuration not stated), the GI50 with UACC-257, with NCI-H226, in the assay on 786-0, with U-251, in the assay on NCI-H522 and in the assay with SF-268 was > 5 µM (inactive) in each case. In addition, the GI50 with HOP-92, in the assay with SNB-75, in the assay with OVCAR-8, in the assay with RXF 393, in the assay on A498 and with IGROV-1 was > 5 µM (inactive) in each case. Further, the GI50 in the assay with NCI-H23, in the assay on SW-620, with MDA-MB-231, with ACHN and in the assay on M14 was > 5 µM (inactive) in each case.
As for `O=C1CCCc2ccc3c(c21)CC1(Cc2ccccc2C1)C3`, the GI50 in the assay with UACC-257 is 21.4 µM (inactive); with NCI-H226 it was 13.3 µM (inactive); with 786-0, 29.1 µM (inactive); with U-251, 41.8 µM (inactive); with NCI-H522, 23.9 µM (inactive); in the assay on HOP-92, 17 µM (inactive). The GI50 in the assay with SNB-75 was 1.26 µM (inactive); with OVCAR-8, 34.2 µM (inactive); in the assay on RXF 393, 33.3 µM (inactive); in the assay on A498 it was 25.6 µM (inactive); in the assay on IGROV-1, 50.9 µM (inactive); in the assay with NCI-H23 it was 36.8 µM (inactive). Besides, the GI50 is 27.5 µM (inactive) in the assay with MDA-MB-231; 31 µM (inactive) with OVCAR-5; 12.2 µM (inactive) in the assay with ACHN; 30.6 µM (inactive) with LOX IMVI; 34.6 µM (inactive) in the assay on M14.

The record behind these values is ChEMBL document CHEMBL1201862, “PubChem BioAssay data set” (2004).
